Measurements: patent US4965280A, “Antifungal carbinols” (E. I. Du Pont de Nemours and Company, priority 1989, dated 1990)
Where two headings read alike, the source gives them in different places.

How the values were obtained:
[1] = test system: Candida albicans ATCC 11651; experiment: In vivo systemic Candida infection in mice, primary assay; design: species or system Candida albicans; CF-1 female mice; conditions: Candida albicans, 150 mg/kg per day, read-out: % Survival
Method in brief: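 CF-1 female mice (20 g, 10 per group) were infected IV with 0.2 ml of 1×10^7/ml C. albicans ATCC 11651, then given test compound subcutaneously at 50 or 150 mg/kg/day at 1 and 6 h post-infection and once daily for three more days. Survival was followed for 21 days against infected untreated mice; ≥70% protection at 14 days was scored active.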

[2] = test system: Cercosporidium personatum; experiment: Example B Peanut Late Leafspot; type: in vivo; conditions: Nothopassalora personata, read-out: disease control rating, Ex. B
Method in brief: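 Dose 100 or 20 ppm; vehicle acetone 6% v/v final in water + 250 ppm surfactant; applied by spraying peanut seedlings to run-off.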

[3] = test system: Erysiphe graminis f. sp. tritici; experiment: Example D wheat powdery mildew; type: in vivo; conditions: Blumeria graminis, 144 h, read-out: disease control rating, Ex. D
Method in brief: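 First, compound taken up in acetone, 6% of the end volume. Next, suspended in water with 250 ppm polyhydric alcohol esters at 100 or 20 ppm. Last, applied to wheat seedlings until run-off.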

[4] = test system: Phytophthora infestans; experiment: whole plant or invertebrate; type: in vivo; conditions: Phytophthora infestans, in Solanum lycopersicum, read-out: disease control rating, Ex. H, 100 PPM
[5] = test system: Plasmorpara viticola; experiment: Example I grape downy mildew; type: in vivo; conditions: read-out: disease control rating, Ex. I
Method in brief: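 First, each compound is taken up in acetone amounting to 6% of the final volume. It is then suspended in purified water containing 250 ppm of the polyhydric alcohol ester surfactant TREM 014, at 100 or 20 ppm. Finally, the suspension is sprayed onto grape seedlings until run-off.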

[6] = test system: Pythium aphanadermatum; experiment: Example J cucumber damping off; type: in vivo; conditions: Pythium, 336 h; 5 kg/ha; read-out: disease control rating, Ex. J
Method in brief: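 Seeds and soil were inoculated with a mix of sand, cereal and Pythium aphanadermatum mycelium, the fungus responsible for cucumber damping off. They were kept in a growth chamber at 30° C. for 14 days, and disease was then rated to assess control.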

[7] = test system: Rhizoctonia solani; experiment: Example K cotton blight; type: in vivo; conditions: 336 h, 5 kg/ha, read-out: disease control rating, Ex. K
Experimental: […] Seeds and soil were then inoculated with a mixture of sand, cereal and mycelium of the fungus Rhizoctonia solani, causal agent of cotton blight, and incubated in a growth chamber at 30° C. for 14 days. Disease ratings were then made.

[8] = test system: Sclerotium rolfsii; experiment: Example M southern blight; type: in vivo; conditions: Agroathelia rolfsii, 336 h; 5 kg/ha; read-out: disease control rating, Ex. M
Experimental: […] Seeds and soil were then inoculated with a mixture of sand, cereal and mycelium of the fungus Sclerotium rolfsii, causal agent of sourthern blight, and incubated in a growth chamber at 30° C. for 14 days. Disease ratings were then made.

[9] = test system: SCIRPUS; experiment: Test C rice paddy; type: in vivo, Scirpus paludosus; conditions: Bolboschoenus maritimus, 504 h, 21 days, read-out: plant response; for pest or weed control at 64 g/ha: 0064 G/HA; for pest or weed control at 125 g/ha: 0125 G/HA; for pest or weed control at 250 g/ha: 0250 G/HA; for pest or weed control at 500 g/ha: 0500 G/HA
Excerpt: (§1) Sixteen cm diameter Airlite plastic pots were partially filled with Tama slit loam soil and the soil saturated with water. Japonica and Indica rice seedlings a the 2.0 to 2.5 leaf stage were transplanted into 1/3 of the pots. Into another third of the pots were transplanted seedling or sprouted tubers of water plantain (Alisma trivale), Scripus (Scirpus paludosus), Cyperus (Cyperus esculentus), and arrowhead (Sagittaria spp.). The remaining pots were planted with barnyardgrass (Echinochloa crusgalli) seeds and sprouted tubes of water chestnut (Eleocharis spp.). These weeds all represent major rice weeds or genera of weeds important in rice. Three to four days after planting, the water level was raised to 3 cm (about 1200 ml/pot) and maintained a this level throughout the test. Chemical treatments were applied directly to the paddy water, within 24 hours of raising the water, after being formulated in a nonphytotoxic solvent. The pots were maintained in the greenhouse.

[10] = test system: YELLOW NUTSEDGE; experiment: Test C rice paddy; type: in vivo, Cyperus esculentus; conditions: 21 days
Excerpt: as §1

[11] = test system: WATER PLAINTAIN; experiment: Test C rice paddy; type: in vivo, Alisma trivale; conditions: 504 h, 21 days, read-out: plant response; for pest or weed control at 64 g/ha: 0064 G/HA; for pest or weed control at 125 g/ha: 0125 G/HA; for pest or weed control at 250 g/ha: 0250 G/HA; for pest or weed control at 500 g/ha: 0500 G/HA
Excerpt: as §1

[12] = test system: RICE JAP EFF; experiment: Test C rice paddy; type: in vivo, Japonica rice; conditions: Oryza sativa, 504 h, 21 days, read-out: plant response; for pest or weed control at 64 g/ha: 0064 G/HA; for pest or weed control at 125 g/ha: 0125 G/HA; for pest or weed control at 250 g/ha: 0250 G/HA; for pest or weed control at 500 g/ha: 0500 G/HA
Excerpt: as §1

[13] = test system: RICE INDICA EFF; experiment: Test C rice paddy; type: in vivo; conditions: Oryza sativa, 504 h, 21 days, read-out: plant response; for pest or weed control at 64 g/ha: 0064 G/HA; for pest or weed control at 125 g/ha: 0125 G/HA; for pest or weed control at 250 g/ha: 0250 G/HA; for pest or weed control at 500 g/ha: 0500 G/HA
Excerpt: as §1

| SMILES | pest or weed control at 100 ppm [4] [%] | pest or weed control at 100 ppm [5] [%] | pest or weed control at 5000 g/ha [6] [%] | pest or weed control at 5000 g/ha [7] [%] | pest or weed control at 5000 g/ha [8] [%] | pest or weed control at 64 g/ha [9] [%] | pest or weed control at 125 g/ha [9] [%] | pest or weed control at 250 g/ha [9] [%] | pest or weed control at 500 g/ha [9] [%] | pest or weed control at 1000 g/ha [9] [%] | plant response ([10]; 0064 G/HA) | plant response ([10]; 0125 G/HA) | plant response ([10]; 0250 G/HA) | plant response ([10]; 0500 G/HA) | plant response ([10]; 1000 G/HA) | pest or weed control at 64 g/ha [11] [%] | pest or weed control at 125 g/ha [11] [%] | pest or weed control at 250 g/ha [11] [%] | pest or weed control at 500 g/ha [11] [%] | pest or weed control at 1000 g/ha [11] [%] | further results |
| --- | --- | --- | --- | --- | --- | --- | --- | --- | --- | --- | --- | --- | --- | --- | --- | --- | --- | --- | --- | --- | --- |
| C=C(c1ccccc1Cl)C(O)(Cn1cncn1)c1ccc(Cl)cc1Cl (centres unmarked) [Example 33, 2-(2,4-Dichlorophenyl)-3-(2-chlorophenyl)-1-(1H-1,2,4-triazol-1-yl)-3-buten-2-ol] | 0 | 24 | 0 | 0 | 0 | 0 | 0 | 0 | 0 | 0 | 0 | 0 | 0 | 0 | 40 | 0 | 0 | 0 | 0 | 0 | responders at 150 mg/kg ([1]; ATCC11651, 168 h, day 7): 100%; responders at 150 mg/kg ([1]; ATCC11651, 336 h, day 14): 100%; responders at 150 mg/kg ([1]; ATCC11651, 504 h, day 21): 100%; pest or weed control at 20 ppm ([2]; 20 PPM): 99%; pest or weed control at 20 ppm ([3]; 20 PPM): 89%; pest or weed control at 64 g/ha [12]: 0%; pest or weed control at 125 g/ha [12]: 0%; pest or weed control at 250 g/ha [12]: 0%; pest or weed control at 500 g/ha [12]: 30%; pest or weed control at 1000 g/ha [12]: 60%; pest or weed control at 64 g/ha [13]: 0%; pest or weed control at 125 g/ha [13]: 0%; pest or weed control at 250 g/ha [13]: 0%; pest or weed control at 500 g/ha [13]: 30%; pest or weed control at 1000 g/ha [13]: 70% |
| C=C(c1ccc(Cl)cc1)C(O)(Cn1cncn1)c1ccccc1F (centres unmarked) [Example 669] | 0 | 0 | 0 | 0 | 0 | 0 | 0 | 0 | 0 | 30 | 0 | 0 | 0 | 60 | 80 | 0 | 0 | 0 | 0 | 0 | responders at 150 mg/kg ([1]; ATCC11651, 168 h, day 7): 100%; responders at 150 mg/kg ([1]; ATCC11651, 336 h, day 14): 100%; responders at 150 mg/kg ([1]; ATCC11651, 504 h, day 21): 100%; pest or weed control at 100 ppm [2]: 100%; pest or weed control at 100 ppm [3]: 100%; pest or weed control at 64 g/ha [12]: 0%; pest or weed control at 125 g/ha [12]: 0%; pest or weed control at 250 g/ha [12]: 0%; pest or weed control at 500 g/ha [12]: 0%; pest or weed control at 1000 g/ha [12]: 0%; pest or weed control at 64 g/ha [13]: 0%; pest or weed control at 125 g/ha [13]: 0%; pest or weed control at 250 g/ha [13]: 0%; pest or weed control at 500 g/ha [13]: 0%; pest or weed control at 1000 g/ha [13]: 0% |
| C=C(c1ccccc1Cl)C(O)(Cn1cncn1)c1ccc(F)cc1F (centres unmarked) [Example 35] | 0 | 26 | 0 | 0 | 0 | 0 | 0 | 0 | 0 | 50 | 0 | 0 | 60 | 95 | 100 | 0 | 0 | 40 | 40 | 60 | responders at 150 mg/kg ([1]; ATCC11651, 168 h, day 7): 100%; responders at 150 mg/kg ([1]; ATCC11651, 336 h, day 14): 100%; responders at 150 mg/kg ([1]; ATCC11651, 504 h, day 21): 90%; pest or weed control at 100 ppm [2]: 100%; pest or weed control at 100 ppm [3]: 100%; pest or weed control at 64 g/ha [12]: 0%; pest or weed control at 125 g/ha [12]: 0%; pest or weed control at 250 g/ha [12]: 0%; pest or weed control at 500 g/ha [12]: 0%; pest or weed control at 1000 g/ha [12]: 20%; pest or weed control at 64 g/ha [13]: 0%; pest or weed control at 125 g/ha [13]: 0%; pest or weed control at 250 g/ha [13]: 0%; pest or weed control at 500 g/ha [13]: 0%; pest or weed control at 1000 g/ha [13]: 20% |
| C=C(c1ccc(F)cc1)C(O)(Cn1ncnc1S)c1ccc(F)cc1F (centres unmarked) [Example 1304] | 0 | 18 | 0 | 0 | 0 | 0 | 0 | 65 | 70 | 80 | 0 | 0 | 0 | 0 | 0 | 0 | 0 | 0 | 0 | 65 | pest or weed control at 100 ppm [2]: 100%; pest or weed control at 100 ppm [3]: 100%; pest or weed control at 64 g/ha [12]: 0%; pest or weed control at 125 g/ha [12]: 0%; pest or weed control at 250 g/ha [12]: 0%; pest or weed control at 500 g/ha [12]: 0%; pest or weed control at 1000 g/ha [12]: 40%; pest or weed control at 64 g/ha [13]: 0%; pest or weed control at 125 g/ha [13]: 0%; pest or weed control at 250 g/ha [13]: 0%; pest or weed control at 500 g/ha [13]: 0%; pest or weed control at 1000 g/ha [13]: 40% |
